# According to US12059420B2 (BRISTOL-MYERS SQUIBB COMPANY, priority 2018, dated 2024):
# pIC50: −log10 of the molar value.
# Biological target: T1, human IDO1 (Homo sapiens, UniProt P14902)
# T1 construct: expressed in transfected cells
# Test: IDO inhibition assay in HEK293 cells stably expressing human IDO1 (kynurenine production, Ehrlich reagent, absorbance 490 nm)
# Type: cell-based
# Settings: 20 hours incubation with compound, 500 nM reference standard = 100% inhibition, read-out: IDO1 HEK Human IC50
# Method in brief: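 HEK293 clones stably expressing human IDO1 (10,000 cells/well, phenol red-free RPMI, 10% FBS) were treated with compound for 20 hours at 37° C. After 0.2% TCA and 30 min at 50° C., kynurenine was read with Ehrlich reagent at 490 nm. IC50 was normalised to DMSO (0%) and 500 nM reference standard (100%).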
# T1 sequence (P14902 whole entry): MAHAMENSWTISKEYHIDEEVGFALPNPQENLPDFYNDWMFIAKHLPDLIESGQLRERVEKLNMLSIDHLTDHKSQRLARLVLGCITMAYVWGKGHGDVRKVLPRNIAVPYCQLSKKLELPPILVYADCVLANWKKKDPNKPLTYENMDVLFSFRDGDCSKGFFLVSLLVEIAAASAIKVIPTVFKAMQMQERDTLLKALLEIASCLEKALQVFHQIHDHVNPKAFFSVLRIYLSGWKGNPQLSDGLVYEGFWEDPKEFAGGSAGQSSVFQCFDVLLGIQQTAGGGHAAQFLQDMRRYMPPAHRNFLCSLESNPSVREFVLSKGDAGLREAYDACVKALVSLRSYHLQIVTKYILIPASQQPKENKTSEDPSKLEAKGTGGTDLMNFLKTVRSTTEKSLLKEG
row,SMILES,pIC50
1,"CCCN(Cc1ccccc1)c1cc(NC(=O)CC2CCCC2)cc(-c2ccccc2-c2nn[nH]n2)n1 [Example 218, N-(2-(2-(2H-tetrazol-5-yl)phenyl)-6-(benzyl(propyl)amino)pyridin-4-yl)-2-cyclopentylacetamide]",5.71
2,"CCCN(Cc1ccccc1)c1cc(NC(=O)Cn2ccnc2)cc(-c2ccccc2-c2nn[nH]n2)n1 [Example 222, N-(2-(2-(2H-tetrazol-5-yl)phenyl)-6-(benzyl(propyl)amino)pyridin-4-yl)-2-(1H-imidazol-1-yl)acetamide]",5.46
3,"CCCN(Cc1ccccc1)c1cc(NC(=O)C2(c3ccccc3)CC2)cc(-c2ccccc2-c2nn[nH]n2)n1 [Example 223, N-(2-(2-(2H-tetrazol-5-yl)phenyl)-6-(benzyl(propyl)amino)pyridin-4-yl)-1-phenylcyclopropanecarboxamide]",6.02
4,"CCCN(Cc1ccccc1)c1cc(NC(=O)C2(c3cccc(F)c3)CC2)cc(-c2ccccc2-c2nn[nH]n2)n1 [Example 224, N-(2-(2-(2H-tetrazol-5-yl)phenyl)-6-(benzyl(propyl)amino)pyridin-4-yl)-1-(3-fluorophenyl)cyclopropanecarboxamide]",5.52
5,"CCCN(Cc1ccccc1)c1cc(NC(=O)Cc2cccnc2)cc(-c2ccccc2-c2nn[nH]n2)n1 [Example 226, N-(2-(2-(2H-tetrazol-5-yl)phenyl)-6-(benzyl(propyl)amino)pyridin-4-yl)-2-(pyridin-3-yl)acetamide]",5.47
6,"CCCN(Cc1ccccc1)c1cc(NC(=O)Cc2ccc(C#N)cc2)cc(-c2ccccc2-c2nn[nH]n2)n1 [Example 227, N-(2-(2-(2H-tetrazol-5-yl)phenyl)-6-(benzyl(propyl)amino)pyridin-4-yl)-2-(4-cyanophenyl)acetamide]",5.47
7,"Cc1cc(CC(=O)Nc2cc(-c3ccccc3-c3nnn[nH]3)nc(N(Cc3ccccc3)CC(C)C)c2)on1 [Example 231, N-(2-(2-(1H-tetrazol-5-yl)phenyl)-6-(benzyl(isobutyl)amino)pyridin-4-yl)-2-(3-methylisoxazol-5-yl)acetamide]",6.17
8,"CC(C)CN(Cc1ccccc1)c1cc(NC(=O)Cc2ccc(F)c(Cl)c2)cc(-c2ccccc2-c2nnn[nH]2)n1 [Example 233, N-(2-(2-(1H-tetrazol-5-yl)phenyl)-6-(benzyl(isobutyl)amino)pyridin-4-yl)-2-(3-chloro-4-fluorophenyl)acetamide]",6.02
9,"CC(C)CN(Cc1ccccc1)c1cc(NC(=O)c2ccc(F)c(F)c2)cc(-c2ccccc2-c2nnn[nH]2)n1 [Example 236, N-(2-(2-(1H-tetrazol-5-yl)phenyl)-6-difluorobenzamide (benzyl(isobutyl)amino)pyridin-4-yl)-3,4-]",6.16
10,"CCC(CC(=O)O)c1cc(Nc2ccc3nc(C)sc3c2)cc(N(Cc2ccccc2)C(C)C)n1 (centres unmarked) [Example 242, 3-(6-(benzyl(isopropyl)amino)-4-((2-methylbenzo[d]thiazol-6-yl)amino)pyridin-2-yl)pentanoic acid]",6.01
11,"CC(C)CN(CC(C)C)c1cc(NC(=O)Nc2ccccc2F)cc(-c2cc(F)ccc2C(=O)O)n1 [Example 251, 2-(6-(diisobutylamino)-4-(3-(2-fluorophenyl)ureido)pyridin-2-yl)-4-fluorobenzoic acid]",5.70
12,"CC(C)CN(CC(C)C)c1cc(NC(=O)Nc2ccccc2F)cc(-c2ccccc2C(=O)O)n1 [Example 252, 2-(6-(diisobutylamino)-4-(3-(2-fluorophenyl)ureido)pyridin-2-yl)benzoic acid]",6.01
13,"CC(C)CN(CC(C)C)c1cc(NC(=O)Nc2ccccc2F)cc(-c2ccccc2-c2nnn[nH]2)n1 [Example 253, 1-(2-(2-(1H-tetrazol-5-yl)phenyl)-6-(diisobutylamino)pyridin-4-yl)-3-(2-fluorophenyl)urea]",6.01
14,"Cc1ccc(NC(=O)Nc2cc(-c3ccccc3C(=O)O)nc(N(CC(C)C)CC(C)C)c2)cc1 [Example 254, 2-(6-(diisobutylamino)-4-(3-(p-tolyl)ureido)pyridin-2-yl)benzoic acid]",5.97
15,CCCN(c1cc(NC(=O)Nc2ccc(C)cc2)cc(-c2cc(F)ccc2C(=O)O)n1)C1CCCCC1 [Example 256],6.01
16,"CCCN(c1cc(NC(=O)Nc2ccc(C)cc2)cc(-c2ccccc2C(=O)O)n1)C1CCCCC1 [Example 257, 2-(6-(cyclohexyl(propyl)amino)-4-(3-(p-tolyl)ureido)pyridin-2-yl)benzoic acid]",5.72
17,"CCCN(Cc1ccccc1)c1cc(NC(=O)Nc2ccccc2F)cc(-c2cc(F)ccc2C(=O)O)n1 [Example 261, 2-(6-(benzyl(propyl)amino)-4-(3-(2-fluorophenyl)ureido)pyridin-2-yl)-4-fluorobenzoic acid]",5.79

# Now from value to molecule:
row,pIC50,SMILES
1,6.19,"CCCN(Cc1ccccc1)c1cc(NC(=O)Cc2c(C)noc2C)cc(-c2ccccc2-c2nn[nH]n2)n1 [Example 213, N-(2-(2-(2H-tetrazol-5-yl)phenyl)-6-(benzyl(propyl)amino)pyridin-4-yl)-2-(3,5-dimethylisoxazol-4-yl)acetamide]"
2,7.11,"CCCN(Cc1ccccc1)c1cc(NC(=O)Cc2csc3ccccc23)cc(-c2ccccc2-c2nn[nH]n2)n1 [Example 216, N-(2-(2-(2H-tetrazol-5-yl)phenyl)-6-(benzyl(propyl)amino)pyridin-4-yl)-2-(benzo[b]thiophen-3-yl)acetamide]"
3,6.62,"CCCN(Cc1ccccc1)c1cc(NC(=O)Cc2cccc(Br)c2)cc(-c2ccccc2-c2nn[nH]n2)n1 [Example 217, N-(2-(2-(2H-tetrazol-5-yl)phenyl)-6-(benzyl(propyl)amino)pyridin-4-yl)-2-(3-bromophenyl)acetamide]"
4,7.22,CCCN(Cc1ccccc1)c1cc(NC(=O)Cc2cccc(OC(F)(F)F)c2)cc(-c2ccccc2-c2nn[nH]n2)n1 [Example 219]
5,7.28,"CCCN(Cc1ccccc1)c1cc(NC(=O)Cc2ccc(C(C)C)cc2)cc(-c2ccccc2-c2nn[nH]n2)n1 [Example 220, N-(2-(2-(2H-tetrazol-5-yl)phenyl)-6-(benzyl(propyl)amino)pyridin-4-yl)-2-(4-isopropylphenyl)acetamide]"
6,6.60,"CCCN(Cc1ccccc1)c1cc(NC(=O)Cc2cn(C)c3ccccc23)cc(-c2ccccc2-c2nn[nH]n2)n1 [Example 221, N-(2-(2-(2H-tetrazol-5-yl)phenyl)-6-(benzyl(propyl)amino)pyridin-4-yl)-2-(1-methyl-1H-indol-3-yl)acetamide]"
7,6.44,"CCCN(Cc1ccccc1)c1cc(NC(=O)Cc2ccccc2)cc(-c2ccccc2-c2nn[nH]n2)n1 [Example 225, N-(2-(2-(2H-tetrazol-5-yl)phenyl)-6-(benzyl(propyl)amino)pyridin-4-yl)-2-phenylacetamide]"
8,6.17,"CC(C)CN(Cc1ccccc1)c1cc(NC(=O)Cc2ccc(F)c(F)c2)cc(-c2ccccc2-c2nnn[nH]2)n1 [Example 228, N-(2-(2-(1H-tetrazol-5-yl)phenyl)-6-(benzyl(isobutyl)amino)pyridin-4-yl)-2-(3,4-difluorophenyl)acetamide]"
9,6.73,"CC(C)CN(Cc1ccccc1)c1cc(NC(=O)Cc2ccc(F)cc2F)cc(-c2ccccc2-c2nnn[nH]2)n1 [Example 229, N-(2-(2-(1H-tetrazol-5-yl)phenyl)-6-(benzyl(isobutyl)amino)pyridin-4-yl)-2-(2,4-difluorophenyl)acetamide]"
10,6.86,"CC(C)CN(Cc1ccccc1)c1cc(NC(=O)Cc2ccc(C(C)C)cc2)cc(-c2ccccc2-c2nnn[nH]2)n1 [Example 230, N-(2-(2-(1H-tetrazol-5-yl)phenyl)-6-(benzyl(isobutyl)amino)pyridin-4-yl)-2-(4-isopropylphenyl)acetamide]"
11,6.40,"CC(C)CN(Cc1ccccc1)c1cc(NC(=O)Cc2ccc(OC(F)(F)F)cc2)cc(-c2ccccc2-c2nnn[nH]2)n1 [Example 235, N-(2-(2-(1H-tetrazol-5-yl)phenyl)-6-(benzyl(isobutyl)amino)pyridin-4-yl)-2-(4-(trifluoromethoxy)phenyl)acetamide]"
12,6.88,"CC(C)CN(Cc1ccccc1)c1cc(NC(=O)Nc2ccc(F)cc2F)cc(-c2ccccc2-c2nnn[nH]2)n1 [Example 237, 1-(2-(2-(1H-tetrazol-5-yl)phenyl)-6-(benzyl(isobutyl)amino)pyridin-4-yl)-3-(2,4-difluorophenyl)urea]"
13,7.58,"CC(C)CN(Cc1ccccc1)c1cc(NC(=O)Nc2ccc(Cl)cc2Cl)cc(-c2ccccc2-c2nnn[nH]2)n1 [Example 238, 1-(2-(2-(1H-tetrazol-5-yl)phenyl)-6-(benzyl(isobutyl)amino)pyridin-4-yl)-3-(2,4-dichlorophenyl)urea]"
14,6.25,"CC(C)CN(Cc1ccccc1)c1cc(NC(=O)Nc2ccc(OC(F)(F)F)cc2)cc(-c2ccccc2-c2nnn[nH]2)n1 [Example 239, 1-(2-(2-(1H-tetrazol-5-yl)phenyl)-6-(benzyl(isobutyl)amino)pyridin-4-yl)-3-(4-(trifluoromethoxy)phenyl)urea]"
15,7.92,"Cc1ccc(NC(=O)Nc2cc(-c3ccccc3-c3nnn[nH]3)nc(N(Cc3ccccc3)CC(C)C)c2)cc1 [Example 240, 1-(2-(2-(1H-tetrazol-5-yl)phenyl)-6-(benzyl(isobutyl)amino)pyridin-4-yl)-3-(p-tolyl)urea]"
16,7.67,"CCC(CC(=O)O)c1cc(Nc2ccc(Cl)cc2)cc(N(Cc2ccccc2)C(C)C)n1 (centres unmarked) [Example 241, 3-(6-(benzyl(isopropyl)amino)-4-((4-chlorophenyl)amino)pyridin-2-yl)pentanoic acid]"
17,6.39,"CCCN(c1cc(NC(=O)Nc2ccc(C)cc2)cc(-c2ccccc2-c2nnn[nH]2)n1)C1CCCCC1 [Example 258, 1-(2-(2-(1H-tetrazol-5-yl)phenyl)-6-(cyclohexyl(propyl)amino)pyridin-4-yl)-3-(p-tolyl)urea]"
18,8.00,"CCCN(Cc1ccccc1)c1cc(NC(=O)Nc2ccc(C)cc2)cc(-c2ccccc2-c2nnn[nH]2)n1 [Example 260, 1-(2-(2-(1H-tetrazol-5-yl)phenyl)-6-(benzyl(propyl)amino)pyridin-4-yl)-3-(p-tolyl)urea]"
